This is an account of results in PubChem BioAssay AID2060503 (Molecular Pharmacology Branch, DTP, NCI, 2025).

The test system of the assay is 817829-284-R-J1-PDC complex spheroids, viability. In words: Anticancer human tumor 817829-284-R-J1-PDC patient-derived colon adenocarcinoma cell line growth inhibition [GQUAD]. The settings on record: for viability, T/C: stronger effect = lower value. The text has this:
DNA G-quadruplex Stabilizer Agents in Combinations in Complex Spheroids
A high-throughput screen of multi-cell type tumor spheroids was designed to identify active combinations of DNA G-quadruplex stabilizer agents and targeted small molecules. Complex spheroids include a stromal component modeled by human endothelial cells (HUVEC) and fibroblasts modeled by human mesenchymal stem cells (MSCs). The concentration ranges selected for each drug and investigational agent were based upon clinically achievable concentrations if the clinical Cmax of the agent was known.
Compounds. The drugs and investigational agents: pidnarulex (CX-5461; NSC782164), APTO-253 (NSC789042), BRACO-19 (NSC847499), peposertib (NSC802822), ceralasertib (NSC780249), elimusertib (NSC800525), camonsertib (NSC841442), AZD-1390 (NSC803789), olaparib (NSC753686), talazoparib (NSC767125), ART-558 (NSC835418), sotorasib (NSC818433), MRTX-1133 (NSC836407), SN-38 (NSC673596), topotecan (NSC609699), etoposide (NSC141540), doxorubicin (NSC123127), gemcitabine (NSC613327), 5-fluorouracil (NSC19893), paclitaxel (NSC125973), vemurafenib (NSC761431), panobinostat (NSC761190), R-306465 (JNJ-16241199; NSC773264), adavosertib (NSC754352), TP-3654 (NSC805149), carboplatin (NSC241240), KSQ-4279 (NSC840948), and staurosporine (NSC755774) were obtained from the National Cancer Institute (NCI) Developmental Therapeutics Program Chemical Repository (34). The FDA-approved anticancer drug set is available from the NCI Developmental Therapeutics Program. […] The stock solutions were prepared in dimethyl sulfoxide (DMSO, Sigma-Aldrich, St. Louis, MO, cat. D2650) at 800-fold the tested concentration and stored at -70 degrees C prior to their use. All drugs and investigational agents were tested over a range starting from a high concentration at or near the clinical Cmax and decreasing in half-log increments. If the clinical Cmax for an agent had not been determined, the highest concentration tested was 10 microM.
2.3 Cell Culture. All cells were maintained in an incubator at 37 degrees C and 5% CO2 with 95% humidity. The PDC lines were cultured according to standard operating procedures established by the NCI PDMR. All PDCs were thawed and cultured in Matrigel-coated flasks prepared with a working solution of 1X Ham's F-12 nutrient mix, without supplementation (Invitrogen, cat. 11765054), 100 U/mL penicillin-streptomycin (Invitrogen, cat. 15140122), and 2.5% Matrigel (Corning Inc., cat. 354248) for the first three passages. The 857933-349-R-J2-PDC line was cultured in 6C/Colon 1B media, which includes advanced DMEM/F-12 (Thermo Fisher Scientific, cat. 12634028), 10 mM HEPES (Thermo Fisher Scientific, cat. 15630080), 1X GlutaMAX supplement (Thermo Fisher Scientific, cat. 35050061), 0.1 mg/mL primocin (InvivoGen, cat. ant-pm-2), 10% defined fetal bovine serum, heat inactivated (HyClone Laboratories Inc., cat. SH30070.03HI), 50% L-WRN conditioned media (ATCC, cat. CRL-3276), 1.25 mM N-Acetyl-L-cysteine (Sigma-Aldrich, cat. A9165), 10 mM nicotinamide (Sigma-Aldrich, cat. N0636), 1X B-27 supplement (Thermo Fisher Scientific, cat. 17504044), 1X N-2 supplement (Thermo Fisher Scientific, cat. 17502048), 10 microM Y-27632 dihydrochloride (Tocris Bioscience, cat. 1254), and 50 ng/mL human EGF recombinant protein (Thermo Fisher Scientific, cat. PHG0311). The 485176-168-R4-J1-PDC line was cultured in Panc media, which includes all 6C/Colon 1B media components plus 100 ng/mL human FGF-10 (Thermo Fisher Scientific, cat. 100-26), 500 nM SB-431542 (Selleckchem, cat. S1067), and gastrin (Tocris, cat. 3006).
[…]

Several values for one entry are separate records, joined by “and”; a condition that tells them apart may be missing. Equal entries are not always repeated. Some results are limits rather than exact numbers.
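Further: spheroids exposed to agents for 7 days before readout.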
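Wherever viability, T/C is given: percent viability relative to DMSO vehicle control taken as 100%.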

With `Cn1ncnc1[C@H]1c2n[nH]c(=O)c3cc(F)cc(c23)N[C@@H]1c1ccc(F)cc1`, the viability, T/C was 111% and 90.3% and 92.1% (compound 0.000999 µM); 86.5% and 83.5% and 92.8% (compound 0.00316 µM); 106% and 112% and 101% (compound 0.00999 µM); 91.3% and 82.8% and 82% (compound 0.0316 µM); 83.5% and 82.1% and 84% (compound 0.0999 µM); 72.2% and 75.2% and 66.5% (compound 0.316 µM). Besides, the IC50 (curve of compound) is > 316 nM.
Turning to `Cc1[nH]c2ccccc2c1CCNCc1ccc(/C=C/C(=O)NO)cc1`, the viability, T/C by setting is: (compound 0.000999 µM) 110% and 93.9% and 106%; (compound 0.00316 µM) 101% and 100% and 86.5%; (compound 0.00999 µM) 127% and 124% and 113%; (compound 0.0316 µM) 73% and 78.2% and 52.8%; (compound 0.0999 µM) 3.77% and 5.53% and 6.09%; (compound 0.316 µM) 0.17% and 0.23% and 0.08%. Also, the 50% inhibitory concentration (IC50) (curve of compound) is 45.8 nM and 48.8 nM and 33.7 nM.
Turning to `C#Cc1c(F)ccc2cc(O)cc(-c3ncc4c(N5CC6CCC(C5)N6)nc(OCC56CCCN5CC(F)C6)nc4c3F)c12` (stereo not given) + Cc1[nH]c2ccc(F)cc2c1-c1nc2c3cccnc3c3ncccc3c2[nH]1, the IC50 (curve of first compound, second compound 0.0316 µM) was > 10000 nM; the IC50 (curve of first compound, second compound 0.1 µM) is > 10000 nM; the IC50 (curve of first compound, second compound 0.316 µM) is > 10000 nM; the IC50 (curve of first compound, second compound 1 µM) amounted to 5600 nM; the IC50 (curve of first compound, second compound 3.16 µM) was < 31.6 nM; the IC50 (curve of first compound, second compound 10 µM) is < 31.6 nM. In addition, the viability, T/C is 96.1% (second compound 0.0316 µM, first compound 0.0316 µM); 95% (second compound 0.0316 µM, first compound 0.1 µM); 96.2% (second compound 0.0316 µM, first compound 0.316 µM); 90.4% (second compound 0.0316 µM, first compound 1 µM); 98% (second compound 0.0316 µM, first compound 3.16 µM); 118% (second compound 0.0316 µM, first compound 10 µM). Besides, the viability, T/C is 97.6% (second compound 0.1 µM, first compound 0.0316 µM); 108% (second compound 0.1 µM, first compound 0.1 µM); 88.2% (second compound 0.1 µM, first compound 0.316 µM); 102% (second compound 0.1 µM, first compound 1 µM); 91.1% (second compound 0.1 µM, first compound 3.16 µM); 108% (second compound 0.1 µM, first compound 10 µM). The viability, T/C is, setting by setting: (second compound 0.316 µM, first compound 0.0316 µM) 91%; (second compound 0.316 µM, first compound 0.1 µM) 96.1%; (second compound 0.316 µM, first compound 0.316 µM) 99.7%; (second compound 0.316 µM, first compound 1 µM) 86.6%; (second compound 0.316 µM, first compound 3.16 µM) 98.8%; (second compound 0.316 µM, first compound 10 µM) 81.1%. In addition, the viability, T/C is 102% (second compound 1 µM, first compound 0.0316 µM); 90.4% (second compound 1 µM, first compound 0.1 µM); 103% (second compound 1 µM, first compound 0.316 µM); 93% (second compound 1 µM, first compound 1 µM); 94.5% (second compound 1 µM, first compound 3.16 µM); 4.87% (second compound 1 µM, first compound 10 µM). Also, the viability, T/C is 3.89% (second compound 3.16 µM, first compound 0.0316 µM); 4.3% (second compound 3.16 µM, first compound 0.1 µM); 3.9% (second compound 3.16 µM, first compound 0.316 µM); 3.3% (second compound 3.16 µM, first compound 1 µM); 1.62% (second compound 3.16 µM, first compound 3.16 µM); 0.11% (second compound 3.16 µM, first compound 10 µM). The viability, T/C (second compound 10 µM, first compound 0.0316 µM) is 3%; the viability, T/C (second compound 10 µM, first compound 0.1 µM) is 12.8%; the viability, T/C (second compound 10 µM, first compound 0.316 µM) was 3.04%; the viability, T/C (second compound 10 µM, first compound 1 µM) is 2.02%; the viability, T/C (second compound 10 µM, first compound 3.16 µM) was 2.19%; the viability, T/C (second compound 10 µM, first compound 10 µM) was 0.17%.
As to `CC(C)(O)C1CCC(Nc2ccc3ncc(-c4cccc(C(F)(F)F)c4)n3n2)CC1` (stereo not given), the viability, T/C was 99.8% and 97.4% and 104% (compound 0.0316 µM); 95.4% and 98.8% and 80.9% (compound 0.1 µM); 106% and 104% and 101% (compound 0.316 µM); 68.3% and 84.7% and 79% (compound 1 µM); 50.6% and 46.8% and 19.7% (compound 3.16 µM); 67.2% and 53% and 22.6% (compound 10 µM). The IC50 (curve of compound) was > 10000 nM and 1780 nM.
`CC[C@@]1(O)C(=O)OCc2c1cc1n(c2=O)Cc2cc3c(CN(C)C)c(O)ccc3nc2-1`: the viability, T/C is, setting by setting: (compound 0.000999 µM) 107% and 116% and 105%; (compound 0.00316 µM) 94.3% (2×) and 87.9%; (compound 0.00999 µM) 107% (2×) and 109%; (compound 0.0316 µM) 53.6% and 60.3% and 47.5%; (compound 0.0999 µM) 33.9% and 45.5% and 27.7%; (compound 0.316 µM) 26.1% and 37.7% and 29.7%. In addition, for the setting “curve of compound”, the IC50 was 37.6 nM and 59.5 nM and 30.1 nM.
